Laboratory results as given in the supplement of paper PMC10307832.

Experiments:
Assay in all cases: relative viability (nuclei count vs DMSO), 5 days (fraction); higher = more cells survive
YM155 + Luminespib = compound: COCC[n+]1c2c(n(Cc3cnccn3)c1C)C(=O)c1ccccc1C2=O [YM155] + CCNC(=O)c1noc(-c2cc(C(C)C)c(O)cc2O)c1-c1ccc(CN2CCOCC2)cc1 [Luminespib] (partner 0.01 µM)
Method in brief: (§1)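 Medians of duplicate plates are given as relative viability. That measure is the nuclei count in treated wells divided by the count in vehicle wells. Counts were taken on 4× images of lung cancer cell lines in 1536-well plates, 5 days after pin-tool dosing the day after seeding with one drug alone or a fixed anchor-drug dose plus five library-drug doses (not always all listed) in √10 steps.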

Quizartinib + Bortezomib = compound: CC(C)(C)c1cc(NC(=O)Nc2ccc(-c3cn4c(n3)sc3cc(OCCN5CCOCC5)ccc34)cc2)no1 [Quizartinib] + CC(C)C[C@H](NC(=O)[C@H](Cc1ccccc1)NC(=O)c1cnccn1)B(O)O [Bortezomib] (partner 0.002 µM)
Method in brief: as §1

Quizartinib + Decitabine = compound: CC(C)(C)c1cc(NC(=O)Nc2ccc(-c3cn4c(n3)sc3cc(OCCN5CCOCC5)ccc34)cc2)no1 [Quizartinib] + Nc1ncn([C@H]2C[C@H](O)[C@@H](CO)O2)c(=O)n1 [Decitabine] (partner 2 µM)
Method in brief: as §1

YM155 + Dasatinib = compound: COCC[n+]1c2c(n(Cc3cnccn3)c1C)C(=O)c1ccccc1C2=O [YM155] + Cc1nc(Nc2ncc(C(=O)Nc3c(C)cccc3Cl)s2)cc(N2CCN(CCO)CC2)n1 [Dasatinib] (partner 0.075 µM)
Method in brief: as §1

Cell Line	relative viability (YM155 + Luminespib; first compound 0.002 µM)	relative viability (YM155 + Luminespib; first compound 0.006325 µM)	relative viability (YM155 + Luminespib; first compound 0.02 µM)	relative viability (YM155 + Luminespib; first compound 0.06325 µM)	relative viability (Quizartinib + Bortezomib; first compound 0.001 µM)	relative viability (Quizartinib + Bortezomib; first compound 0.003162 µM)	relative viability (Quizartinib + Bortezomib; first compound 0.01 µM)	relative viability (Quizartinib + Bortezomib; first compound 0.03162 µM)	relative viability (Quizartinib + Bortezomib; first compound 0.1 µM)	relative viability (Quizartinib + Decitabine; first compound 0.001 µM)	relative viability (Quizartinib + Decitabine; first compound 0.003162 µM)	relative viability (Quizartinib + Decitabine; first compound 0.01 µM)	relative viability (Quizartinib + Decitabine; first compound 0.03162 µM)	relative viability (Quizartinib + Decitabine; first compound 0.1 µM)	relative viability (YM155 + Dasatinib; first compound 0.002 µM)	relative viability (YM155 + Dasatinib; first compound 0.006325 µM)	relative viability (YM155 + Dasatinib; first compound 0.02 µM)	relative viability (YM155 + Dasatinib; first compound 0.06325 µM)
LC-2-ad	0.942	0.959	0.869	0.331	0.955	0.954	1.11	1.06	0.996	0.718	0.81	0.776	0.841	0.68	0.529	0.547	0.674	0.649
EBC-1					0.524	0.505	0.561	0.495	0.466									
PC-14	0.171	0.174	0.111	0.143	0.768	0.846	0.971	0.826	0.644	0.218	0.198	0.225	0.144	0.324	0.231	0.26	0.252	0.114
NCI-H1395	0.934	0.81	0.798	0.971						0.718	0.74	0.728	0.718	0.774	0.359	0.423	0.388	0.444
NCI-H2405	0.65	0.778	0.639	0.393	0.689	1.01	1.01	1.01	0.984	0.723	0.72	0.789	0.737	0.87	0.191	0.22	0.206	0.21
SW 900	0.179	0.188	0.164	0.177						0.42	0.392	0.422	0.372	0.336	0.443	0.523	0.845	0.666
NCI-H2009	1.08	0.986	1.04	0.476	0.423	0.879	0.948	1.02	0.926	0.408	0.295	0.396	0.373	0.443	0.265	0.264	0.343	0.266
EPLC-272H	0.378	0.327	0.186	0.24	0.778	0.836	0.818	0.69	0.75	0.301	0.417	0.375	0.376	0.382	0.358	0.371	0.396	0.365
LCLC-103H	0.927	0.832	0.846	1.04	0.871	1.01	0.994	1	1.12	0.632	0.735	0.682	0.796	0.759	0.446	0.456	0.474	0.531
NCI-H1650	0.181	0.197	0.175	0.228	0.139	0.184	0.207		0.191	0.345	0.364	0.458		0.393	0.283	0.338	0.368	0.353
NCI-H1703					0.418	0.269	0.16	0.18	0.256									
Calu-6					0.924	0.991	1.02	0.811	1.07									
NCI-H2342	0.721	0.788	0.738	0.746						0.749	0.763	0.678	0.729	0.724	0.308	0.336	0.329	0.301
NCI-H1944	0.688	0.637	0.81	1.16						0.38	0.389	0.499	0.419	0.399	0.201	0.202	0.208	0.24
HCC-366					0.989	0.974	1.13	0.967	1.01	0.313	0.334	0.352	0.331	0.314	0.578	0.653	0.685	0.581
NCI-H522	1.21	1.1	1.04	1.28						0.684	0.7	0.67	0.603	0.618	0.877	0.818	0.915	0.9
NCI-H1563	0.554	0.455	0.542	0.555	0.968	0.833	0.791		0.84						0.382	0.541	0.453	0.475
LK-2	0.249	0.165	0.21	0.185						0.263	0.215	0.363	0.348	0.438	0.275	0.271	0.266	0.294
NCI-H2228	0.16	0.148	0.104	0.144	1.05	0.995	0.937	0.92	1.08						0.432	0.528	0.534	0.661
NCI-H2170	0.525	0.751	0.647	0.596						0.424	0.466	0.468	0.578	0.44	0.485	0.628	0.572	0.625
NCI-H358	0.222	0.374	0.352	0.311						0.194	0.209	0.232		0.192	0.139	0.145	0.161	0.156
HCC-44	1.04	1.05	0.92	0.219	0.878	0.937	0.941	0.838	0.775	0.864	0.798	0.905	0.996	0.855				
A549										0.193	0.249	0.161	0.27	0.25				
NCI-H1623	0.43	0.464	0.458	0.497											0.547	0.529	0.599	0.555
